Reference: US7977375B2, “Antibiotic and method of production thereof” (Helmholtz-Zentrum Für Infektionsforschung GmbH, priority 2004, dated 2011)
In brackets after ≈: the same amount, converted by molar mass.

Legend:
Test in all cases: MIC / MBC in liquid culture
Assay type in all cases: cell-based
[1] = tested on: Candida albicans DSM 11225; details: DSM11225, read-out: MIC (minimal inhibitory concentration)
[2] = tested on: Candida parapsilosis DSM5784; details: Lodderomyces parapsilosis, read-out: MIC (minimal inhibitory concentration)
Candida krusei DSM 6128 = details: Pichia kudriavzevii, DSM6128, read-out: MIC (minimal inhibitory concentration)

MIC [1]: 2 µg/mL (≈ 4.81 µM) | MIC [2]: 2 µg/mL (≈ 4.81 µM) | MIC (Candida krusei DSM 6128): 2 µg/mL (≈ 4.81 µM)
SMILES: Clc1ccc(COC(Cn2ccnc2)c2ccc(Cl)cc2Cl)c(Cl)c1 (stereo not drawn) [MCZ, miconazol]
